Consider nine molecules from article PMC3038857, “Using Nuclear Receptor Activity to Stratify Hepatocarcinogens” (PLoS ONE, 2011).

SMILES strings stand for the structures.

Assay [1] addresses T1, AR (androgen receptor) (Homo sapiens, UniProt P10275).
T1 construct: expressed in transfected cells
T1 sequence (P10275 1-920): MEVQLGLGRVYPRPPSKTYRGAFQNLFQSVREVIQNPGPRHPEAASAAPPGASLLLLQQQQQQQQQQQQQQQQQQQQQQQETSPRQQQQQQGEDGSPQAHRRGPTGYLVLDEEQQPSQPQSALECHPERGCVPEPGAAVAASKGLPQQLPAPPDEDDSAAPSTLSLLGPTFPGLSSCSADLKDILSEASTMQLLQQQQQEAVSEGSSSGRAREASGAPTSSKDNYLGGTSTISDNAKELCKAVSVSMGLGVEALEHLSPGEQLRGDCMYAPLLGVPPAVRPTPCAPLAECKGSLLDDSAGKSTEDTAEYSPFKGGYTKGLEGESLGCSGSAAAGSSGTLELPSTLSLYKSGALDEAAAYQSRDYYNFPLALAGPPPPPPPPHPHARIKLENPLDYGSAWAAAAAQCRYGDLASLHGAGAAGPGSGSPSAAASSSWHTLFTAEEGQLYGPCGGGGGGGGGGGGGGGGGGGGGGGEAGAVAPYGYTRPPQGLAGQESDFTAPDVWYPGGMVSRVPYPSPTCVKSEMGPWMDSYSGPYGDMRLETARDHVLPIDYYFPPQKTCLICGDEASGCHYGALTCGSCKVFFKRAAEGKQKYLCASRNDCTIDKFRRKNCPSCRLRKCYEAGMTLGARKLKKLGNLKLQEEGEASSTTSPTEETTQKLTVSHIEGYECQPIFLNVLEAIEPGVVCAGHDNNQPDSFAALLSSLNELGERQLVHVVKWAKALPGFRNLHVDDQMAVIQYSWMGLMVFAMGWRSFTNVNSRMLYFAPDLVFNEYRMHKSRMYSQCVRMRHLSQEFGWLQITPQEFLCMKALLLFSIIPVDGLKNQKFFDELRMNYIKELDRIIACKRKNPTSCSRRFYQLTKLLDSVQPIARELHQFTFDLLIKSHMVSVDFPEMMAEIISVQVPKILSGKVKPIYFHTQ
The experiment in a line: NCGC_AR_Agonist: GAL4 BLAM Reporter gene assay: AR. The format is cell-based. Conditions: agonist mode; scale not given, looks like -log10 of molar active concentration; 0 = no activity. On the procedure:
(§1) These assays measure binding constants and enzyme inhibition values for nuclear receptors. The targets include [drawing 67] , [drawing 68] , [drawing 69] , [drawing 70] , [drawing 71] , [drawing 72] , [drawing 73] , [drawing 74] , [drawing 75] and [drawing 76] . Each of the nuclear receptor targets was measured in agonist mode. Assays were run at the NIH Chemical Genomics Center (Rockville, MD).
(§2) Cell-based HTS Assays: These assays measuring binding constants and enzyme inhibition values for nuclear receptors. The targets include AR, ER, FXR, LXR, PPARα, PPARδ, PPARγ, RXRα, RXRβ and PXR. Each of the nuclear receptor targets was measured in both agonist and antagonist mode, but the antagonist data is still undergoing analysis due to possible interference between cytotoxicity and assay activity, so antagonist mode data were not used in the present analysis. Assays were run at the NIH Chemical Genomics Center (Rockville, MD) as part of the Tox21 collaboration. […] The R^2 was required to be ≥0.5. Values where only the highest concentration exceeded 50% activity were excluded to eliminate weak or false positives. Detailed description of the methods, data and analysis methods for this dataset will be presented in a separate publication.

The target in assay [2] is T1, AR (androgen receptor). Kind of assay: NCGC_AR_Antagonist: GAL4 BLAM Reporter gene assay: AR. The format is cell-based. Conditions: antagonist mode. As to the method: as §1, §2
A general note: In a reporter assay the amount or activity of a reporter protein is the signal.

[3] abbreviates: scale not given, looks like -log10 of molar active concentration, 0 = no activity.

In turn, `COc1ccc(-c2ccccc2)cc1NNC(=O)OC(C)C` [r38] displayed an NCGC_AR_Agonist in assay [1] of 0. For the same molecule, the NCGC_AR_Antagonist in assay [2] (setting [3]) is recorded as 0. Molecule `CC(C)(c1ccc(O)cc1)c1ccc(O)cc1` [r40] displayed an NCGC_AR_Agonist in assay [1] of 0. Also, the NCGC_AR_Antagonist in assay [2] (setting [3]) came out at 4.137. In assay [1], `N#Cc1cc(Br)c(O)c(Br)c1` [r44] displayed an NCGC_AR_Agonist of 0. In addition, in assay [2] (setting [3]), the NCGC_AR_Antagonist is listed as 0. In assay [1], `CC(C)N1C(=O)N(c2ccccc2)CS/C1=N\C(C)(C)C` [r45] returned an NCGC_AR_Agonist of 0. This molecule also returned an NCGC_AR_Antagonist in assay [2] (setting [3]) of 0. Regarding `CCCCOCN(C(=O)CCl)c1c(CC)cccc1CC` [r46], in assay [1], the NCGC_AR_Agonist is listed as 0. In assay [2] (setting [3]), the NCGC_AR_Antagonist came out at 4.347. Taken in the same sequence, the figures for `CCSC(=O)N(CC(C)C)CC(C)C` [r49] were 0 and 0.

On to `CC1=C(C(=O)Nc2ccccc2)SCCO1` [r53], for which, in assay [1], the NCGC_AR_Agonist was found to be 0. Moreover, the NCGC_AR_Antagonist in assay [2] (setting [3]) came out at 0. The molecule `Cc1ccccc1CO[C@@H]1C[C@@]2(C(C)C)CC[C@]1(C)O2` [r64] had an NCGC_AR_Agonist in assay [1] of 0. This molecule yielded an NCGC_AR_Antagonist in assay [2] (setting [3]) of 0. As to `CC(C)Oc1cc(-n2nc(C(C)(C)C)oc2=O)c(Cl)cc1Cl` [row 225], in assay [2], the NCGC_AR_Antagonist amounted to 4.167.
